According to patent US20250188088A1, “COMPOUND AND USE THEREOF” (ONQUALITY PHARMACEUTICALS CHINA LTD., priority 2022, published 2025):

How the values were obtained:
[1] = Plasma stability, mini pig plasma; type: in vitro ADME, Mini Pigs; conditions: 37° C.
Procedure: (§1) In addition, the plasma stability of these compounds was determined. Briefly, the determination method comprises the following steps: • 1) Thaw the frozen mixed plasma in a 37° C. water bath before testing, and then centrifuge at 4000 rpm for 5 min to remove blood clots; • 2) Add 98 μL blank plasma into each well of the 96-well reaction plate; • 3) In addition to the blank samples, add 2 μL of 100 μM working solution of test compound into each well; • 3) Incubate the reaction plate at 37° C. and start timing. Incubation times were 0, 10, 30, 60 and 120 minutes, respectively, with two replicate wells at each time point; • 4) Terminate the incubation at the corresponding time point, and add 400 μL of acetonitrile solution containing 200 ng/mL tolbutamide and 200 ng/mL labetalol to precipitate proteins; • 5) Shake each plate for 20 minutes, then centrifuge at 4000 rpm for 20 minutes, transfer 50 μL of supernatant to another 96-well plate, and dilute each sample with 100 μL of pure water; • 6) Analyze the sample by LC-MS/MS.

[2] = Plasma stability, human plasma; type: in vitro ADME, Humans; conditions: 37° C.
Procedure: as §1
The experiment results are as follows, and it can be seen from the test results that the selected compounds are easily metabolized to the target compound in human plasma.

[3] = tested on: rash caused by monoclonal EGFR inhibitors; test: Prevention of rash caused by monoclonal EGFR inhibitors, topical ointment, rat model; type: in vivo, SD rats
Procedure: An Experiment to Verify the Prevention of Rash Caused by Monoclonal EGFR Inhibitors with Topical Administration of Compounds of the Present Application on a Rat Animal Model After the SD rats were fed and adapted for one week (about 200 g), the rats were divided into 10 rats per group. The hair on the back of rats was gently removed with an electric razor one day before the experiment, and then an administration test was carried out. The experiments were divided into the administration group with the compound of the present application and the control group. The EGFR monoclonal antibody solution diluted with normal saline was injected via the tail vein twice a week, and the injection rate and time are shown in Table 2. After injection, the administration group applied the compound ointment of the present application on the backs (about 3 cm*3 cm) of rats every day, and the control group applied blank matrix ointment (about 0.5 g) to the backs (about 3 cm*3 cm) of rats every day. After drug application, the rats were fixed with a fixed cyclinder for 4 h; after that, the rats were released and the residual drug at the application site was wiped off with clear water. Monoclonal antibody EGFR inhibitors were injected via the tail vein twice a week, and the compound of the present application and blank ointment were applied once a day until obvious rashes appeared in the control group. […] Table 2 lists the animal experiment combinations of various monoclonal antibody EGFR inhibitors and the compound ointment of the present application, as well as the corresponding experiment results (wherein, the value in the control rate column=the number of rats whose rash is milder in the administration group than that in the control group/the total number of rats in the administration group×100%).

[4] = tested on: rash caused by monoclonal EGFR inhibitors; test: Treatment of rash caused by monoclonal EGFR inhibitors, topical ointment, rat model; type: in vivo; conditions: SD rats
Procedure: An Experiment to Verify the Treatment of Rash Caused by Monoclonal EGFR Inhibitors with Topical Administration of Compounds of the Present Application on a Rat Animal Model After the SD rats were fed and adapted for one week (about 200 g), the rats were divided into 10 rats per group. The hair on the back of rats was gently removed with an electric razor one day before the experiment, and then an administration test was carried out. The EGFR monoclonal antibody solution diluted with normal saline was injected via tail vein twice a week, and the injection rate and time were shown in Table 4; the treatment experiment was started at the time point when rats developed a rash after continuous administration for 1-2 weeks. The experiments were divided into the administration group with the compound of the present application and the control group. During the treatment experiment, monoclonal antibody EGFR inhibitors were injected twice a week. the administration group applied the compound ointment of the present application on the back (about 3 cm*3 cm) of rats every day, and the control group applied blank matrix ointment on the back (about 3 cm*3 cm); after application, the rats were fixed with a fixed cyclinder for about 4 hours, and then the rats were released, with the residual drug at the application site wiped off with clean water, and put back into the cage. […] Table 4 lists the animal experiment combinations of monoclonal antibody EGFR inhibitors and the compound ointment of the present application, as well as the corresponding experiment results (wherein, the value in the control rate column=the number of rats whose rash is milder in the administration group than that in the control group/the total number of rats in the administration group×100%).

[5] = tested on: rash caused by small molecule EGFR inhibitors; test: Prevention of rash caused by small molecule EGFR inhibitors, topical ointment, rat model; type: in vivo, SD rats
Description: An Experiment to Verify the Prevention of Rash Caused by Small Molecule EGFR Inhibitors with Topical Administration of Compounds of the Present Application on a Rat Animal Model A rat animal model was established. After daily gavage of a small molecule EGFR inhibitor to female SD rats for […], the rats developed extensive rashes on their backs several days later (picture shown in FIG. 1). […] Similar to humans, rats developed skin rashes on their faces and bodies after oral administration of small molecule EGFR inhibitors. Both of them had the same etiology and very similar symptoms. Therefore, rats are a proper animal model for mimicking EGFR inhibitor-induced rash. After the SD rats were fed and adapted for one week (about 200 g), the rats were divided into 10 rats per group. The hair on the back of rats was gently removed with an electric razor one day before the experiment, and then an intragastric administration test was carried out. EGFR inhibitors were dissolved in a sterile aqueous solution, and diluted with PBS buffer; the amount of each gavage was not more than 2 mL, and the dosage was shown in Table 1. The experiment comprised the administration group and the control group. After intragastric administration, apply the ointment (type and concentration are shown in Table 1) of the compound used in the present application to the backs (about 3 cm*3 cm) of rats in the administration group; apply blank matrix ointment (about 0.5 g) to the backs (about 3 cm*3 cm) of rats in the control group; fix the rats with a fixed cylinder for about 4 hours after drug application, release the rats after 4 hours, wipe off the residual drug at the application site with clean water, and put them back into the cage. The frequency of intragastric administration of EGFR inhibitors is shown in Table 1, but the compounds of the present application and blank matrix ointment are applied only once a day. The intragastric administration and application test were repeated daily until an obvious rash appeared in the control group. […] Table 1 lists the animal experiment combination of various small molecule EGFR inhibitors and the compound ointment of the present application, as well as the corresponding experiment results (wherein, the value in the control rate column=the number of rats whose rash is milder in the administration group than that in the control group/the total number of rats in the administration group×100%).

[6] = Panitumumab 6 mg/kg twice a week via tail vein, ointment 0.1 wt%, 8 days of drug application
[7] = BPI-7711 60 mg/kg once a day, ointment 5.0 wt% (A14: printed '^ 5%%') once a day, 12 days

Compound | half-life at 2 µM [1] | % Retained ([1]; 0 min) | % Retained ([1]; 10 min) | % Retained ([1]; 30 min) | % Retained ([1]; 60 min) | % Retained ([1]; 120 min) | half-life at 2 µM [2] | % Retained ([2]; 0 min) | % Retained ([2]; 10 min) | % Retained ([2]; 30 min) | % Retained ([2]; 60 min) | % Retained ([2]; 120 min) | other results
CCCCC(=O)OCCN(C)C(=O)n1ccc2c(N(C)[C@H]3CN(C(=O)CC#N)CC[C@H]3C)ncnc21 [Compound A22] | 6.3 min | 100.0% | 25.5% | 1.8% | 0.1% | 0.1% | 3.1 min | 100.0% | 4.5% | 0.1% | 0.1% | 0.0% | Control Rate ([3]; Cetuximab 100 mg/kg twice a week via tail vein, ointment 0.3 wt% once a day, 10 days): 20%; Control Rate ([3]; Cetuximab 100 mg/kg twice a week via tail vein, ointment 5.0 wt% once a day, 10 days): 40%; Control Rate ([3]; Panitumumab 10 mg/kg twice a week via tail vein, ointment 1.0 wt% once a day, 14 days): 30%; Control Rate ([3]; Panitumumab 10 mg/kg twice a week via tail vein, ointment 10.0 wt% once a day, 14 days): 65%
C[C@@H]1CCN(C(=O)CC#N)C[C@@H]1N(C)c1ncnc2c1ccn2C(=O)N(C)CCOC(=O)c1ccccc1 [Compound A14] |  |  |  |  |  |  |  |  |  |  |  |  | Control Rate ([4]; Cetuximab 102 mg/kg twice a week via tail vein, ointment 1.0 wt%, 10 days of drug application): 20%; Control Rate ([4]; Cetuximab 102 mg/kg twice a week via tail vein, ointment 5.0 wt%, 10 days of drug application): 60%; Control Rate [4, 6]: 40%; Control Rate ([4]; Panitumumab 6 mg/kg twice a week via tail vein, ointment 3.0 wt%, 8 days of drug application): 70%; Control Rate [5, 7]: 70%; Control Rate ([5]; Dacomitinib 10 mg/kg once a day, ointment 1.0 wt% once a day, 12 days): 50%; Control Rate ([5]; Dacomitinib 10 mg/kg once a day, ointment 5.0 wt% once a day, 12 days): 65%; Control Rate ([5]; Osimertinib 60 mg/kg twice a day, ointment 0.3 wt% once a day, 10 days): 30%; Control Rate ([5]; Osimertinib 60 mg/kg twice a day, ointment 10.0 wt% once a day, 10 days): 80%; Control Rate ([5]; Zorifertinib 60 mg/kg once a day, ointment concentration printed '^ 3%%' (wt %) once a day, 14 days): 50%
C[C@@H]1CCN(C(=O)CC#N)C[C@@H]1N(C)c1ncnc2c1ccn2C(=O)N(C)CCOC(=O)C(C)(C)C [Compound A23] | 41.1 min | 100.0% | 75.1% | 51.3% | 39.2% | 12.0% | 20.8 min | 100.0% | 60.2% | 40.1% | 18.5% | 1.6% | 
C[C@@H]1CCN(C(=O)CC#N)C[C@@H]1N(C)c1ncnc2c1ccn2C(=O)N(C)CCOC(=O)c1ccncc1 [Compound A15] | 71.5 min | 100.0% | 88.3% | 75.9% | 57.6% | 30.8% | 4.8 min | 100.0% | 20.6% | 0.9% | 0.0% | 0.0% | 
CN(CCOC(=O)C1CCCCC1)C(=O)n1ccc2c(-c3cnn([C@@H](CC#N)C4CCCC4)c3)ncnc21 [Compound A39] |  |  |  |  |  |  |  |  |  |  |  |  | Control Rate ([4]; Cetuximab 100 mg/kg twice a week via tail vein, ointment 0.1 wt%, 10 days of drug application): 20%; Control Rate ([4]; Cetuximab 100 mg/kg twice a week via tail vein, ointment 1.0 wt%, 10 days of drug application): 40%; Control Rate ([4]; Cetuximab 100 mg/kg twice a week via tail vein, ointment 5.0 wt%, 10 days of drug application): 80%; Control Rate ([4]; Cetuximab 100 mg/kg twice a week via tail vein, ointment 10.0 wt%, 10 days of drug application): 100%; Control Rate [4, 6]: 20%; Control Rate ([4]; Panitumumab 6 mg/kg twice a week via tail vein, ointment 1.0 wt%, 8 days of drug application): 30%; Control Rate ([4]; Panitumumab 6 mg/kg twice a week via tail vein, ointment 5.0 wt%, 8 days of drug application): 60%; Control Rate ([4]; Panitumumab 6 mg/kg twice a week via tail vein, ointment 10.0 wt%, 8 days of drug application): 70%; Control Rate [5, 7]: 90%; Control Rate ([5]; EAI045 80 mg/kg once a day, ointment 1.0 wt% once a day, 11 days): 20%; Control Rate ([5]; EAI045 80 mg/kg once a day, ointment 5.0 wt% once a day, 11 days): 65%; Control Rate ([5]; Osimertinib 60 mg/kg twice a day, ointment 0.1 wt% once a day, 10 days): 10%; Control Rate ([5]; Osimertinib 60 mg/kg twice a day, ointment 3.0 wt% once a day, 10 days): 30%; Control Rate ([5]; Zorifertinib 60 mg/kg once a day, ointment 5.0 wt% once a day, 14 days): 40%

Further lines, with some results ahead:

half-life at 2 µM [1] | % Retained ([1]; 0 min) | % Retained ([1]; 10 min) | % Retained ([1]; 30 min) | % Retained ([1]; 60 min) | % Retained ([1]; 120 min) | half-life at 2 µM [2] | % Retained ([2]; 0 min) | % Retained ([2]; 10 min) | % Retained ([2]; 30 min) | % Retained ([2]; 60 min) | % Retained ([2]; 120 min) | Compound | other results
66.8 min | 100.0% | 100.9% | 76.0% | 52.2% | 30.7% | 25 min | 100.0% | 83.4% | 50.7% | 20.4% | 3.8% | C[C@@H]1CCN(C(=O)CC#N)C[C@@H]1N(C)c1ncnc2c1ccn2C(=O)N(C)CCOC(=O)C1CCN(C)CC1 [Compound A17] | 
> 289 min | 100.0% | 85.3% | 91.0% | 91.0% | 77.6% | 32.5 min | 100.0% | 77.1% | 48.2% | 28.1% | 7.4% | CC(=O)OCCN(C)C(=O)n1ccc2c(N(C)[C@H]3CN(C(=O)CC#N)CC[C@H]3C)ncnc21 [Compound A13] | 
24.3 min | 100.0% | 73.0% | 46.2% | 18.5% | 3.3% | 2.6 min | 100.0% | 5.1% | 0.0% | 0.0% | 0.0% | CC(C)C(=O)OCCN(C)C(=O)n1ccc2c(N(C)[C@H]3CN(C(=O)CC#N)CC[C@H]3C)ncnc21 [Compound A19] | 
